Laboratory results from patent US8859615B2, “Compounds, compositions and methods for reducing toxicity and treating or preventing diseases” (priority 2008, dated 2014).
Where two headings read alike, the source gives them in different places.

Legend:
[1] = test system: AKR1C2 and AKR1C3 in human neuroblastoma IMR-32 cells; assay: Induction of AKR1C enzymes, coumberone metabolism (Tables 12, 13); conditions: for Fold induction of AKR1C2 and AKR1C3 in IMR-32 cells (result in words): inducer varied from 50 nM to 60 μM; for EC50: IMR-32, read-out: EC50 of induction of AKR1C2 and AKR1C3 in IMR-32 cells
Procedure: (§1) Compounds were screened for AKR1C enzyme activity as set forth in Halim, M.; Yee, D. J. and Sames, D. J. Am. Chem. Soc. 2008, […], 14123-14128. […] Specifically, coumberone metabolism studies in IMR-32 can be done as follows: Early-passage (<P25) IMR-32 cells were seeded at a density of 4×10^4 cells/well in 96-well dish. They were then treated with the various inducers or DMSO vehicle (0.5% v/v) control. The concentration of each inducer was varied from 50 nM to 60 μM and the cells were incubated with these for either 24 or 48 hours. 72 hours after seeding, the media was removed and 100 μL of experimental media (DMEM without phenol red supplemented with 100 units/ml penicillin, 100 μg/ml streptomycin, 4 mM L-glutamine and 1% charcoal-dextran treated FBS) was added and incubated for 2 hrs. 100 μl more of the experimental media containing Coumberone (final concentration of 5 μM) was then added. The fluorescence of the cell culture medium was recorded on a plate reader MicroMax 384 connected to a Jobin Yvon Fluorolog by detecting fluorescence at 510 nm upon excitation at 385 nm. The reading was taken every 6 hours for 72 hours. Metabolic conversion rate was obtained by measuring the change in fluorescence per hour for the first 36 hours. The relative increase in metabolic rate was calculated by dividing the metabolic conversion rates of cells incubated with the activator compounds with those incubated with DMSO vehicle. […] Fold-induction is the increase metabolic activity of the reporter. […] “None” indicates no observed induction.
The IMR-32 induction assay was run as follows. Early-passage (<P25) IMR-32 cells were seeded at a density of 4×10^4 cells/well in 96-well dish. They were then treated with the various inducers or DMSO vehicle (0.5% v/v) control. The concentration of each inducer was varied from 50 nM to 60 μM and the cells were incubated with these for either 24 or 48 hours. 72 hours after seeding, the media was removed and 100 μL of experimental media (DMEM without phenol red supplemented with 100 units/ml penicillin, 100 μg/ml streptomycin, 4 mM L-glutamine and 1% charcoal-dextran treated FBS) was added and incubated for 2 hrs. 100 μl more of the experimental media containing Coumberone (final concentration of 5 μM) was then added. The fluorescence of the cell culture medium was recorded on a plate reader MicroMax 384 connected to a Jobin Yvon Fluorolog by detecting fluorescence at 510 nm upon excitation at 385 nm. The reading was taken every 6 hours for 72 hours. Metabolic conversion rate was obtained by measuring the change in fluorescence per hour for the first 36 hours. The relative increase in metabolic rate was calculated by dividing the metabolic conversion rates of cells incubated with the activator compounds with those incubated with DMSO vehicle. […] J. Am. Chem. Soc. 2008, 130, 14123-[…].

[2] = test system: human neuroblastoma IMR-32 cells; assay: 50% toxicity in the IMR-32 induction assay (Table 12); format: cell-based
Procedure: as §1

[3] = test system: CCRF-CEM human T-cell acute lymphoblastic leukemia cells; assay: In vitro cytotoxicity against CCRF-CEM (XTT / CCK-8 tetrazolium assay, 72 hr); conditions: Homo sapiens, CCRF-CEM, read-out: IC50 (μM) CCRF-CEM
Procedure: The cytotoxicity IC50 of each compound was measured with the XTT assay using the 2,3-bis(2-methoxy-4-nitro-5-sulfophenyl)-5-[(phenylamino)carbonyl]-2H-tetrazolium hydroxide (XTT) microculture method as described in Scudiero et al., Cancer Res., 48:4827 (1988), the contents of which are hereby incorporated by reference in their entirety. The CCK-8 assay is a cell counting kit-8 (CCK-8) tetrazolium assay using a 96-well microplate (Dojindo Molecular Technologies, Inc., Rockville, Md.) (M. Ishiyama et al., Biol. Pharm. Bull. 19: 1518, 1996). Absorbance was measured by Powerwave a XS microplate spectrophotometer. This method described is considered a general method in vitro cytotoxicity studies.
The data in Tables 2X, 3A-E, 4, 5, and 6 were obtained using the cell counting kit-8 (CCK-8) tetrazolium assay in a 96-well microplate. Five to seven concentrations of each compound in triplicate were used, and the IC50 values were determined by CompuSyn software automation (Chou T C. and Martin N. ComboSyn, Inc., 2006) based on the median-effect equation and plot (Chou T C. J. Theor. Biol. 59:235-276, 1976; Chou T C. Pharmacol. Rev. 58: 621-681, 2006). […] The r value defines the correlation coefficient of the median-effect plot which signifies the conformity to the mass-action law principle (Chou T C. J. Theor. Biol. 59:235-276, 1976; Chou T C. Pharmacol. Rev. 58:621-681, 2006). These parameters were determined by CompuSyn simulation (available at http://www.combosyn.com).
CCRF-CEM human T-cell acute lymphoblastic leukemia cells and the corresponding vinblastine-resistant cells (CCRF-CEM/VBL100) were cultured at an initial density of 5×10^4 cells per milliliter. The cultured cells were maintained in a 5% CO2-humidified atmosphere at 37° C. in RPMI medium 1640 (GIBCO/BRL) containing penicillin (100 units/mL), streptomycin (100 μg/mL, GIBCO/BRL), and 10% heat-inactivated fetal bovine serum. The cytotoxicity of each Compound of the invention was measured using the 2,3-bis(2-methoxy-4-nitro-5-sulfophenyl)-5-[(phenylamino)carbonyl]-2H-tetrazolium hydroxide (XTT) microculture method as described in Scudiero et al., Cancer Res., 48:4827 (1988), the contents of which are hereby incorporated by reference in their entirety.
Absorbance was measured by Powerwave XS microplate spectrophotometer.

[4] = Homo sapiens, IMR-32, read-out: 50% toxicity in IMR-32 cells
[5] = Homo sapiens, IMR-32, read-out: Fold induction of AKR1C2 and AKR1C3 in IMR-32 cells
[6] = Homo sapiens, IMR-32; read-out: 50% toxicity in IMR-32 cells
[7] = Homo sapiens, IMR-32, sub-head printed inside Table 13 r22; read-out: IC50 (μM) IMR-32

Row | Fold induction of AKR1C2 and AKR1C3 in IMR-32 cells (result in words) [1] | SMILES | IC50 [2, 6] [µM] | also measured
1 | None | CCCCCCC[C@@H](O)[C@H](O)CC#CC#C[C@H](O)c1ccccc1 |  | IC50 ([2]; listed as 19; read-out: 50% toxicity in IMR-32 cells): > 40 µM
2 |  | CCCCCCC[C@@H](O)[C@H](O)CC#CC#CCO |  | IC50 [3]: 5.57 µM
3 |  | C=C[C@@H](O)C#CC#CC[C@@H](O)[C@H](O)CCCCCCC [Compound 1] |  | fold induction at 20 µM [1, 5]: 2; IC50 [2, 4]: > 40 µM
4 |  | C=C[C@H](C#CC#CC[C@H]1OC(C)(C)O[C@@H]1CCCCCCC)OC(C)=O [Compound 4] | > 40 | fold induction at 20 µM [1, 5]: 1.5
5 | None | CCCCCCC[C@H]1OC(C)(C)O[C@@H]1CC#CC#CC(=O)CC [Compound 5] |  | 
6 | None | C=CC(=O)C#CC#CC[C@H]1OC(C)(C)O[C@@H]1CCCCCCC [Compound 6] |  | 
7 | None | C=C[C@H](C#CC#CC[C@H]1OC(C)(C)O[C@@H]1CCCCCCC)OC [Compound 7] |  | 
8 | None | CCCCCCC[C@H]1OC(C)(C)O[C@@H]1CC#CC(O)CC (stereo partly drawn) [Compound 10] | ~25 | 
9 | None | CCCCCCC[C@H]1OC(C)(C)O[C@@H]1Cc1nnn(Cc2ccccc2)c1C(O)CC (stereo partly drawn) [Compound 11] | ~35 | 
10 | None | CCCCCCC[C@H]1OC(C)(C)O[C@@H]1Cc1c[nH]nn1 [Compound 12] | ~35 | 
11 | None | CCCCCCC[C@H]1OC(C)(C)O[C@@H]1Cc1ccc(C=O)cc1 [Compound 13] | ~30 | 
12 | None | CCCCCCC[C@H]1OC(C)(C)O[C@@H]1Cc1ccc(C(O)CC)cc1 (stereo partly drawn) [Compound 14] | ~40 | 
13 | None | C=CC(O)c1ccc(C[C@H]2OC(C)(C)O[C@@H]2CCCCCCC)cc1 (stereo partly drawn) [Compound 15] | ~40 | 
14 |  | C=C[C@H](O)C#CC#CC[C@H](O)[C@@H](O)CCCCCCC [Compound 16] |  | EC50 ([1]; Homo sapiens): ~3.5 µM; fold induction at 5 µM [1, 5]: 2.3; IC50 [2, 4]: ~12 µM
15 |  | C=C[C@H](O)C#CC#CC[C@@H]1OC(C)(C)O[C@H]1CCCCCCC [Compound 17] | ~5 | 
16 | None | O=C1NC2(CCCCC2)C(=O)N2CCC[C@@H]12 [Compound 26] |  | 
17 | None | C=C1CO[C@H]2[C@@H]3C(=O)C[C@@H](C(C)C)[C@]3(C)C[C@H]3OC(=O)C[C@@]3(C)[C@@]12O [Compound 35] | > 50 | 

Row | Fold induction of AKR1C2 and AKR1C3 in IMR-32 cells (result in words) [1] | SMILES | IC50 [2, 6] [µM] | also measured
18 | None | CCCCCCC[C@H]1OC(C)(C)O[C@@H]1CC#CC#C[C@H](O)c1ccccc1 [Example 20] | ~10 | 
19 |  | C=C[C@H](O)C#CC#CC[C@H]1OC(C)(C)O[C@@H]1CCCCCCC [Example 21] | ~4 | fold induction at 1 µM [1, 5]: 1.4
20 |  | CCCCCCC[C@@H](O)[C@H](O)CC#CC#C[C@H](O)c1ccccc1 [Example 24, (1R,7R,8R)-1-phenyl-2,4-pentadecadiyne-1,7,8-triol] |  | EC50 ([1]; Homo sapiens): ~3.5 µM; fold induction at 5 µM [1, 5]: 1.5; IC50 ([2]; read-out: 50% toxicity in IMR-32 cells): ~8 µM
21 | None | CCCCCCC[C@H]1OC(C)(C)O[C@@H]1CC#CC#C/C=C/C(OC)c1ccccc1 (stereo partly drawn) [Example 25] | ~32.5 | 
22 | None | C=C[C@@](C)(O)C#CC#CC[C@H]1OC(C)(C)O[C@@H]1CCCCCCC [analog 8] |  | 
23 | None | CCCCCCC[C@H]1OC(C)(C)O[C@@H]1CC#CC#C/C=C/CO [analog 9] |  | 
24 |  | C=C[C@H](O)C#CC#CC[C@H](O)[C@@H](O)CCCCCCC [drawing 241] |  | IC50 [3]: 2.69 µM
25 |  | CCCCCCC[C@@H](O)[C@H](O)CC#CC#CC(O)/C=C/c1ccccc1 (stereo partly drawn) [drawing 243] |  | IC50 [3]: 9.46 µM
26 |  | CCCCCCC[C@@H](O)[C@H](O)CC#CC#C[C@H](O)c1ccccc1 [drawing 244] |  | IC50 [3]: 5.96 µM
27 |  | CCCCCCC[C@H]1OC(C)(C)O[C@@H]1CC#CC#C[C@H](O)c1ccccc1 [drawing 245] |  | IC50 [3]: 2.49 µM
28 |  | CCCCCCC[C@H]1OC(C)(C)O[C@@H]1Cc1ccc(C=O)cc1 [drawing 246] |  | IC50 [3]: 12.6 µM
29 |  | C=CC(O)c1ccc(C[C@H]2OC(C)(C)O[C@@H]2CCCCCCC)cc1 (stereo partly drawn) [drawing 247] |  | IC50 [3]: 5.25 µM
30 |  | CCCCCCC[C@H]1OC(C)(C)O[C@@H]1Cc1ccc(C(O)CC)cc1 (stereo partly drawn) [drawing 248] |  | IC50 [3]: 4.18 µM
31 |  | CCCCCCC[C@H]1OC(C)(C)O[C@@H]1Cc1nnn(Cc2ccccc2)c1C(O)CC (stereo partly drawn) [drawing 249] |  | IC50 [2, 7]: 35 µM
32 |  | CCCCCCC[C@H]1OC(C)(C)O[C@@H]1Cc1c[nH]nn1 [drawing 250] |  | IC50 [2, 7]: 35 µM
33 |  | CCCCCCC[C@H]1OC(C)(C)O[C@@H]1CC#CC(O)CC (stereo partly drawn) [drawing 251] |  | IC50 [2, 7]: 25 µM

Row | SMILES | Fold induction of AKR1C2 and AKR1C3 in IMR-32 cells (result in words) [1] | IC50 [2, 6] [µM] | also measured
34 | CC12COC3(O)C4O[C@H]5CCC1(O)C45CC(O)C32C (mixture of isomers) [Compound 33] | None |  | IC50 [2, 4]: > 40 µM
35 | C[C@@]12COC(=O)[C@]1(C)[C@@H]1O[C@]3(C)[C@@H](O)C[C@]24OC(=O)CC134 (stereo partly drawn) [Compound 31] | None |  | IC50 [2, 4]: > 40 µM
36 | C[C@]12COC(=O)[C@@]1(C)[C@H]1O[C@@]3(C)[C@H](O)C[C@@]24OC(=O)CC134 (stereo partly drawn) [Compound 32] | None |  | IC50 [2, 4]: > 40 µM
37 | CC1=C[C@@H]2OC[C@@H]3C[C@@]4(O)C[C@]3(C)[C@]2(CC1)CO4 [Compound 34] | None |  | IC50 [2, 4]: > 40 µM
38 | CCCCCCC[C@@H](O)[C@H](O)CC#CC#CC[C@H](O)[C@@H](O)CCCCCCC [analog 2] | None |  | IC50 [2, 4]: ~25 µM
